# Laboratory results: patent US9302996B2, “Continuous arycyclic compound” (MITSUBISHI TANABE PHARMA CORPORATION, priority 2010, dated 2016)
# Where two headings read alike, the source gives them in different places.
# Legend:
# Assay type in all cases: in vivo
# ICR mice = test: Triglyceride (TG) in blood plasma increase-inhibiting action due to lipid administration; settings: Mus musculus; male ICR mice, 5 mg/kg oral, lipid (Intralipos 20%) after 30 minutes, plasma TG 2 hours after lipid; read-out: Inhibiting rate of TG-increase in blood plasma (5 mg/kg)
# Protocol: 6 to 9 weeks-old male ICR mice were fasted overnight, and Test compound suspended in 0.2% carboxymethyl cellulose solution was orally administered to the mice. A lipid (Intralipos 20%, OTSUKA PHARMACEUTICAL CO., LTD., 10 mL/kg) was orally administered after 30 minutes. Blood was collected from tail vein immediately before the lipid administration, and after 2 hours from the same to obtain blood plasma. Measurement of TG in blood plasma was carried out by using a triglyceride E Test Wako (Wako Pure Chemical Industries, Ltd.), and an increased value of TG in blood plasma by administration of the lipid was calculated. An increased value of TG in blood plasma in a solvent control group was used as a control, and an inhibiting rate in increase of TG in blood plasma in the Test compound administered group was calculated.
# C57BL/6J mice = test: Antifeeding activity (high fat diet intake up to 4 hours); settings: Mus musculus, male C57BL/6J mice, 5 mg/kg oral, food ingested up to 4 hours, read-out: Antifeeding rate (5 mg/kg)
# Protocol: 7 to 10 weeks-old male C57BL/6J mice were fasted overnight, and the test compound suspended in 0.2% carboxymethylcellulose solution was orally administered. Immediately after the administration, high fat diet (Oriental Yeast Co., Ltd, 60 cal % fat) was provided and freely fed. An amount of food ingested up to 4 hours was measured, and a lowering rate (an antifeeding rate) of the amount of food ingested in the Test compound administered group was calculated as compared to that of the solvent control group as a control.
# KK-Ay mice = test: Weight gain-inhibiting action, hypoglycemic effect, insulin in blood plasma lowering action in KK-Ay mice; settings: Mus musculus, 336 h, male KK-Ay mice, high fat diet, 30 mg/kg/day oral, 2 weeks
# Protocol: To 8 weeks-old male KK-Ay mice were provided high fat diet (Oriental Yeast Co., Ltd, 60 cal % fat), and Test compound suspended in 0.2% carboxymethylcellulose solution was orally administered once a day. Oral administration was continued for 2 weeks, and a weight gain-inhibiting rate of the Test compound was calculated by using a weight gain amount of the solvent control group during the test period as 100%. After final administration, the mice were fasted overnight, and blood was collected from tail vein. Measurement of a blood-sugar level was carried out by using glucose Cα Test Wako (Wako Pure Chemical Industries, Ltd.), and measurement of insulin in blood plasma was carried out by using a mouse insulin measurement kit (Morinaga Institute of Biological Science, Inc.).
# [1] = read-out: Hypoglycemic action (30 mg/kg/day)
# [2] = read-out: Insulin in blood plasma-lowering action (30 mg/kg/day)
# [3] = read-out: Weight gain-inhibiting action (30 mg/kg/day)
Compound,inhibition in vivo at 5 mg/kg (ICR mice) [%],inhibition in vivo at 5 mg/kg (C57BL/6J mice) [%],inhibition in vivo at 30 mg/kg (KK-Ay mice; [1]) [%],inhibition in vivo at 30 mg/kg (KK-Ay mice; [2]) [%],inhibition in vivo at 30 mg/kg (KK-Ay mice; [3]) [%]
Cc1cc(OCC(C)(C)C(=O)O)ncc1-c1ccc(-c2ncc(C3(C(F)(F)F)CC3)[nH]2)cc1 [Example 39],54,76,44,50,38
"CC(C)(COc1ccc(-c2ccc(-c3ncc(C4(C(F)(F)F)CC4)[nH]3)cn2)cc1)C(=O)O [Example 6-3), sodium 2,2-dimethyl-3-[4-(5-{5-[1-(trifluoromethyl)cyclopropyl]-1H-imidazol-2-yl]pyridin-2-yl}phenoxy)propanoate]",78,71,63,72,
CCC(CC)(COc1ccc(-c2ccc(-c3ncc(C(F)(F)F)[nH]3)nc2)cn1)C(=O)O [Example 23],85,63,-13,14,39
Cc1cc(OCC2(C(=O)O)CCC2)ccc1-c1ccc(-c2ncc(C(F)(F)F)[nH]2)cn1 [Example 70],67,59,52,27,45
"Cc1cc(OCC(C)(C)C(=O)O)ncc1-c1cnc(-c2ncc(C(F)(F)F)[nH]2)cn1 [Example 95-6), 2,2-dimethyl-3-[(4-methyl-5-{5-[5-(trifluoromethyl)-1H-imidazol-2-yl]pyrazin-2-yl}pyridin-2-yl)oxy]propanoic acid]",70,83,66,58,75
Cc1cc(OCC(C)(C)C(=O)O)ncc1-c1ccc(-c2ncc(CC(C)C)[nH]2)c(F)c1 [Example 119],67,51,40,28,36
O=C(O)C1(COc2ccc(-c3ccc(-c4ncc(C(F)(F)F)[nH]4)cn3)cc2)CCC1 [Example 14],69,66,23,27,17
"CCC(CC)(COc1ccc(-c2ccc(-c3ncc(C(F)(F)F)[nH]3)cn2)cc1)C(=O)O [Example 19-3), 2-ethyl-2-[[4-[5-[4-(trifluoromethyl)-1H-imidazol-2-yl]-2-pyridyl]phenoxy]methyl]butanoic acid]",89,78,,,
Cc1cc(OCC(C)(C)C(=O)O)ncc1-c1ccc(-c2ncc(CC3CC3)[nH]2)nc1 [Example 118],64,61,,,
CC(C)(COc1ccc(-c2ccc(-c3ncc(C(F)(F)F)[nH]3)cn2)c(F)c1)C(=O)O [Example 64],60,78,,,
Cc1cc(OCC(C)(C)C(=O)O)ncc1-c1ccc(-c2ncc(C(F)(F)C(F)(F)F)[nH]2)nc1 [Example 116],82,76,,,
O=C(O)C1(COc2ccc(-c3ccc(-c4ncc(C(F)(F)F)[nH]4)cn3)cn2)CCCC1 [Example 17],69,82,,,
Cc1cc(OCC2(C(=O)O)CC2)ccc1-c1ccc(-c2ncc(C(F)(F)F)[nH]2)cn1 [Example 71],50,29,,,
O=C(O)C1(COc2ccc(-c3ccc(-c4ncc(C(F)(F)F)[nH]4)nc3)cn2)CCCC1 [Example 16],74,75,,,
CCC(CC)(COc1cc(C)c(-c2ccc(-c3ncc(C(F)(F)F)[nH]3)c(Cl)c2)cn1)C(=O)O [Example 140],68,78,,,
CC(C)Cc1cnc(-c2ccc(-c3ccc(OCC(C)(C)C(=O)O)nc3)nc2)[nH]1 [Example 59],74,50,,,
CC(C)(COc1ccc(-c2ccc(-c3ncc(CC4CC4)[nH]3)cn2)cc1)C(=O)O [Example 27],69,66,,,
"O=C(O)C1(COc2ccc(-c3ccc(-c4ncc(C(F)(F)F)[nH]4)cn3)cc2)CC1 [Example 60-3), 1-[[4-[5-[5-(trifluoromethyl)-1H-imidazol-2-yl]-2-pyridyl]phenoxy]methyl]cyclopropanecarboxylic acid]",48,59,,,

Compound,inhibition in vivo at 5 mg/kg (ICR mice) [%],inhibition in vivo at 5 mg/kg (C57BL/6J mice) [%],inhibition in vivo at 30 mg/kg (KK-Ay mice; [1]) [%],inhibition in vivo at 30 mg/kg (KK-Ay mice; [2]) [%],inhibition in vivo at 30 mg/kg (KK-Ay mice; [3]) [%]
Cc1cc(OCC(C)(C)C(=O)O)ncc1-c1ccc(-c2ncc(C(C)(C)C(F)(F)F)[nH]2)c(F)c1 [Example 115],50,62,,,
Cc1cc(OCC2(C(=O)O)CCC2)ncc1-c1cnc(-c2ncc(C(F)(F)F)[nH]2)c(F)c1 [Example 137],81,83,,,
Cc1nc(OCC(C)(C)C(=O)O)ccc1-c1ccc(-c2ncc(C(F)(F)F)[nH]2)cn1 [Example 10],62,62,,,
CC(C)(COc1ccc(-c2cnc(-c3ncc(C(F)(F)F)[nH]3)c(F)c2)cn1)C(=O)O [Example 141],82,55,,,
"Cc1cc(OCC2(C(=O)O)CCC2)ncc1-c1ccc(-c2ncc(C(F)(F)F)[nH]2)c(Cl)c1 [Example 101-3), 1-{[(5-{3-chloro-4-[5-(trifluoromethyl)-1H-imidazol-2-yl]phenyl}-4-methylpyridin-2-yl)oxy]methyl}cyclobutanecarboxylic acid]",71,57,,,
CC(C)(COc1ccc(-c2ccc(-c3ncc(CCC4CC4)[nH]3)cn2)cc1)C(=O)O [Example 30],60,68,,,
CC(C)(COc1ncc(-c2ccc(-c3ncc(C(F)(F)F)[nH]3)cc2)cc1F)C(=O)O [Example 90],83,75,,,
CC(C)(COc1ccc(-c2ccc(-c3ncc(C4CCCCC4)[nH]3)cn2)cc1)C(=O)O [Example 56],61,76,,,
CC(C)(COc1ccc(-c2ccc(-c3ncc(C4CCCCCC4)[nH]3)cn2)cc1)C(=O)O [Example 31],86,65,,,
"Cc1cc(-c2ccc(-c3ncc(C(F)(F)F)[nH]3)cn2)ccc1OCC(C)(C)C(=O)O [Example 8-2), 2,2-dimethyl-3-[2-methyl-4-[5-[5-(trifluoromethyl)-1H-imidazol-2-yl]-2-pyridyl]phenoxy]propanoic acid]",46,57,,,
CC(C)(COc1cnc(-c2ccc(-c3ncc(C4(C(F)(F)F)CC4)[nH]3)cc2)cn1)C(=O)O [Example 49],48,58,,,
Cc1cc(OCC2(C(=O)O)CC2)ncc1-c1cnc(-c2ncc(C(F)(F)F)[nH]2)c(F)c1 [Example 136],64,62,,,
"Cc1cc(-c2ccc(OCC(C)(C)C(=O)O)cc2)ncc1-c1ncc(C2(C(F)(F)F)CC2)[nH]1 [Example 35-3), 2,2-dimethyl-3-[4-(4-methyl-5-{5-[1-(trifluoromethyl)cyclopropyl]-1H-imidazol-2-yl}pyridin-2-yl)phenoxy]-propanoic acid]",54,56,,,
Cc1cc(OCC2(C(=O)O)CC2)ncc1-c1ccc(-c2ncc(C(F)(F)F)[nH]2)nc1 [Example 132],65,47,,,
Cc1cc(OCC(C)(C)C(=O)O)ncc1-c1ccc(-c2ncc(C(C)(C)C(F)(F)F)[nH]2)nc1 [Example 47],72,44,,,
CC(C)CCc1cnc(-c2ccc(-c3ccc(OCC(C)(C)C(=O)O)cc3)nc2)[nH]1 [Example 25],54,81,,,
"CC(C)(CCOc1ccc(-c2ccc(-c3ncc(C(F)(F)F)[nH]3)cn2)cc1)C(=O)O [Example 18-2), 2,2-dimethyl-4-[4-[5-[5-(trifluoromethyl)-1H-imidazol-2-yl]-2-pyridin]phenoxy]butanoic acid]",69,83,,,
